Laboratory results reported in ChEMBL document CHEMBL1201862, “PubChem BioAssay data set” (2004).
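Compound exposure: 48 hours, 5 concentrations, 96-well plates. The concentration for 50% growth inhibition is given as GI50.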 Active and inactive are the calls of the source. No stated cut-off is given here; in the data, active = GI50 up to about 1.1 µM and inactive = higher.

Key:
Assay in all cases: inhibition of tumour cell growth, NCI panel, 48 h
BT-549 = system: BT-549
CAKI-1 = system: CAKI-1
CCRF-CEM = system: CCRF-CEM
HL-60 = system: HL-60
IGROV-1 = system: IGROV-1
KM12 = system: KM12
LOX IMVI = system: LOX IMVI
M14 = system: M14
NCI-H23 = system: NCI-H23
NCI-H460 = system: NCI-H460
OVCAR-8 = system: OVCAR-8
PC-3 = system: PC-3
SF-539 = system: SF-539
SK-MEL-28 = system: SK-MEL-28
SK-OV-3 = system: SK-OV-3
UACC-257 = system: UACC-257
UACC-62 = system: UACC-62
UO-31 = system: UO-31
HCC 2998 = system: HCC 2998

Measured: GI50

COc1ccc(C2=NNC(=O)c3ccccc3N2c2nc(-c3cccs3)nc3ccc(Br)cc23)cc1
inactive: BT-549 37.5 µM | CAKI-1 76.2 µM | CCRF-CEM 5.25 µM | HL-60 > 100 µM | IGROV-1 63.5 µM | KM12 61.5 µM | LOX IMVI 27.1 µM | M14 37.4 µM | NCI-H23 31 µM | NCI-H460 40.4 µM | OVCAR-8 53.5 µM | PC-3 24.7 µM | SF-539 16.7 µM | SK-MEL-28 > 100 µM | SK-OV-3 53.7 µM | UACC-257 51.9 µM | UACC-62 64.1 µM | UO-31 > 100 µM

CC12CCc3ccccc3C1=Nc1ccccc12 (stereo unspecified)
inactive: BT-549 17.8 µM | CAKI-1 17.7 µM | CCRF-CEM 25.1 µM | HL-60 28.8 µM | IGROV-1 71.1 µM | KM12 24.1 µM | LOX IMVI 40.8 µM | M14 32.3 µM | NCI-H23 31.1 µM | NCI-H460 37.3 µM | OVCAR-8 42.5 µM | PC-3 14.3 µM | SF-539 14.2 µM | SK-MEL-28 90.2 µM | SK-OV-3 > 100 µM | UACC-257 49.8 µM | UACC-62 29.4 µM | UO-31 24.3 µM

O=c1oc2ccccc2cc1/C=N/N1C(=S)N(c2ccccc2)C(=N\c2ccccc2)/C1=N/c1ccccc1
inactive: BT-549 > 100 µM | CAKI-1 > 100 µM | HCC 2998 > 100 µM | IGROV-1 > 100 µM | KM12 > 100 µM | M14 > 100 µM | NCI-H23 > 100 µM | NCI-H460 47.6 µM | OVCAR-8 34.6 µM | PC-3 14 µM | SF-539 > 100 µM | SK-MEL-28 > 100 µM | SK-OV-3 > 100 µM | UACC-257 96.8 µM | UACC-62 98.2 µM | UO-31 > 100 µM

Clc1ccc(CCNCCNC2(c3cc4ccccc4s3)CCCCC2)cc1Cl
inactive: BT-549 1.94 µM | CAKI-1 1.87 µM | CCRF-CEM 2.54 µM | HCC 2998 1.5 µM | IGROV-1 1.81 µM | KM12 1.6 µM | LOX IMVI 1.74 µM | M14 2.01 µM | NCI-H23 1.78 µM | NCI-H460 1.73 µM | OVCAR-8 1.84 µM | PC-3 1.73 µM | SK-MEL-28 1.79 µM | SK-OV-3 1.46 µM | UACC-257 1.81 µM | UACC-62 1.74 µM | UO-31 1.85 µM

Cc1c2c(c(O)c3c(O)cccc13)C(=O)C1(O)C(=O)C(C(=O)NCNc3ccc(C(N)=O)cn3)=C(O)C(N(C)C)C1C2 (stereo unspecified)
inactive: BT-549 3.48 µM | CAKI-1 5.36 µM | CCRF-CEM 2.94 µM | HCC 2998 3.07 µM | IGROV-1 1.82 µM | KM12 3.53 µM | LOX IMVI 4.78 µM | M14 3.63 µM | NCI-H23 7.74 µM | OVCAR-8 3.21 µM | PC-3 3.68 µM | SF-539 2.52 µM | SK-MEL-28 3.53 µM | SK-OV-3 3.1 µM | UACC-257 3.66 µM | UACC-62 3.39 µM

Clc1cccc(Cl)c1C1SCc2nc3cc4ccccc4cc3n21 (stereo unspecified)
inactive: BT-549 > 100 µM | CAKI-1 > 100 µM | CCRF-CEM > 100 µM | HCC 2998 > 100 µM | IGROV-1 > 100 µM | KM12 > 100 µM | M14 > 100 µM | NCI-H23 > 100 µM | NCI-H460 > 100 µM | OVCAR-8 > 100 µM | PC-3 > 100 µM | SK-MEL-28 > 100 µM | SK-OV-3 > 100 µM | UACC-257 > 100 µM | UACC-62 > 100 µM | UO-31 > 100 µM

CCOC(=O)c1ccc2nc(NC(=O)COC(=O)CSc3nc(C)cc(C)n3)sc2c1
inactive: BT-549 31.2 µM | CAKI-1 26.3 µM | CCRF-CEM 1.52 µM | HL-60 15.8 µM | IGROV-1 27 µM | KM12 > 100 µM | LOX IMVI 48 µM | M14 41.6 µM | NCI-H23 > 100 µM | NCI-H460 38.7 µM | OVCAR-8 57.9 µM | PC-3 40.2 µM | SF-539 26.1 µM | SK-MEL-28 97.3 µM | SK-OV-3 32.5 µM | UACC-257 > 100 µM | UACC-62 25.8 µM | UO-31 13.9 µM

CN1CCC23c4c5ccc(O)c4OC2c2[nH]c4ccccc4c2CC3(O)C1C5 (stereo unspecified)
inactive: BT-549 45.1 µM | CAKI-1 47.1 µM | CCRF-CEM 22 µM | HCC 2998 17.5 µM | IGROV-1 66.4 µM | KM12 51.2 µM | LOX IMVI 21.5 µM | M14 17.7 µM | NCI-H23 > 100 µM | NCI-H460 29.2 µM | OVCAR-8 54.8 µM | PC-3 41.6 µM | SK-MEL-28 13.7 µM | SK-OV-3 > 100 µM | UACC-257 18.5 µM | UACC-62 23.4 µM | UO-31 15.2 µM
